Data reported in the supplement of paper PMC10307832.

Legend:
Experiment in all cases: relative viability (nuclei count vs DMSO), 5 days (fraction); higher = more cells survive
[1] = compound: CCN1CCC(CC1)N2C=C(N=N2)CNC3=CC4=C(C(=CN=C4C(=C3)Cl)C#N)NC5=CC(=C(C=C5)F)Cl [KIN001-266] + CCNC(=O)c1noc(-c2cc(C(C)C)c(O)cc2O)c1-c1ccc(CN2CCOCC2)cc1 [Luminespib] (partner 0.01 µM)
In short: (§1)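 Nuclei were stained with Hoechst during a one-step fixation (final 0.05% Triton X-100, 1% formaldehyde, 1 ug/ml Hoechst) carried out 5 days after dosing, then counted on 4× images. The cells, lung cancer lines in 1536-well plates, had been dosed by pin tool the day after seeding with one drug alone or a fixed anchor-drug dose plus five library-drug doses (not always all listed) in √10 steps. Relative viability is the nuclei count in treated wells divided by that in vehicle wells, and each value is the median of duplicate plates.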

[2] = compound: CCN1CCC(CC1)N2C=C(N=N2)CNC3=CC4=C(C(=CN=C4C(=C3)Cl)C#N)NC5=CC(=C(C=C5)F)Cl [KIN001-266] + Cc1nc(NC(=O)N2CCC[C@H]2C(N)=O)sc1-c1ccnc(C(C)(C)C(F)(F)F)c1 [Alpelisib] (partner 2 µM)
In short: as §1

[3] = compound: CCN1CCC(CC1)N2C=C(N=N2)CNC3=CC4=C(C(=CN=C4C(=C3)Cl)C#N)NC5=CC(=C(C=C5)F)Cl [KIN001-266] + Cc1nc(Nc2ncc(C(=O)Nc3c(C)cccc3Cl)s2)cc(N2CCN(CCO)CC2)n1 [Dasatinib] (partner 0.075 µM)
In short: as §1

[4] = compound: CCN1CCC(CC1)N2C=C(N=N2)CNC3=CC4=C(C(=CN=C4C(=C3)Cl)C#N)NC5=CC(=C(C=C5)F)Cl [KIN001-266] + Cc1cc(Nc2cc(N3CCN(C)CC3)nc(Sc3ccc(NC(=O)C4CC4)cc3)n2)n[nH]1 [Tozasertib] (partner 0.1 µM)
In short: as §1

Cell Line	relative viability ([1]; first compound 0.08 µM)	relative viability ([1]; first compound 0.253 µM)	relative viability ([1]; first compound 0.8 µM)	relative viability ([1]; first compound 2.53 µM)	relative viability ([1]; first compound 8 µM)	relative viability ([2]; first compound 0.08 µM)	relative viability ([2]; first compound 0.253 µM)	relative viability ([2]; first compound 0.8 µM)	relative viability ([2]; first compound 2.53 µM)	relative viability ([2]; first compound 8 µM)	relative viability ([3]; first compound 0.08 µM)	relative viability ([3]; first compound 0.253 µM)	relative viability ([3]; first compound 0.8 µM)	relative viability ([3]; first compound 2.53 µM)	relative viability ([3]; first compound 8 µM)	relative viability ([4]; first compound 0.08 µM)	relative viability ([4]; first compound 0.253 µM)	relative viability ([4]; first compound 0.8 µM)	relative viability ([4]; first compound 2.53 µM)	relative viability ([4]; first compound 8 µM)
NCI-H322M	0.86	0.576	1.05	0.83	0.926	0.648	0.87	0.8	0.694	0.689	0.272	0.27	0.265	0.238	0.242	0.451	0.554	0.513	0.433	0.458
NCI-H358	0.496	0.251	0.237	0.306	0.123	0.825	0.774	0.981	0.831	0.43	0.148	0.171	0.173	0.137	0.116	0.107	0.129	0.132	0.0982	0.0945
NCI-H441	0.32	0.354	0.328	0.286	0.302	0.75	0.822	0.73	0.793	0.496	0.655	0.836	0.64	0.658	0.362	0.75	0.737	0.557	0.56	0.261
NCI-H460	0.0348	0.0385	0.0335	0.0269	0.0404	0.609	0.581	0.484	0.485	0.413	0.659	0.513	0.531	0.45	0.496	0.553	0.423	0.333	0.54	0.121
NCI-H520	0.246	0.289	0.228	0.192	0.22	0.817	0.929	1.08	0.646	0.801	0.209	0.208	0.187	0.168	0.194	0.426	0.441	0.434	0.466	0.413
NCI-H596	0.922	1.03	1.08	1.03	0.905	0.492	0.445	0.431	0.534	0.398	0.607	0.586	0.539	0.583	0.63	0.882	0.893	0.881	0.925	0.786
NCI-H647	0.162	0.138	0.419	0.179	0.153	1.29	1.3	1.11	1.11	0.928	0.249	0.268	0.181	0.152	0.15	0.277	0.213	0.265	0.352	0.156
NCI-H650	0.847	0.902	0.838	0.822	0.81	1.12	1.08	1.33	1.09	1.14	0.609	0.531	0.455	0.451	0.517	0.791	0.713	0.74	0.732	0.672
NCI-H661	0.887	0.946	0.968	0.915	0.559	0.95	0.753	0.721	0.557	0.591	0.897	1.01	0.847	0.894	0.657	0.364	0.377	0.373	0.353	0.353
NCI-H727	0.359	0.316	0.346	0.246	0.514	0.585	0.567	0.622	0.597	0.329	0.473	0.468	0.323	0.342	0.261	0.759	0.584	0.552	0.715	0.467
NCI-H838	0.27	0.284	0.328	0.2	0.186	1.04	0.998	1.05	0.966	0.694	0.275	0.267	0.338	0.26	0.282	0.266	0.299	0.257	0.254	0.22
NCI-H1355	0.741	0.642	0.811	0.691	0.722	0.854	0.783	0.912	0.737	0.764	0.734	0.7	0.663	0.691	0.662	0.62	0.593	0.515	0.513	0.506
NCI-H1395	0.829	0.76	0.619	0.545	0.659	1.07	1.06	1.23	0.955	1.05	0.413	0.388	0.43	0.418	0.429	0.808	0.779	0.786	0.724	0.677
